Reference: paper PMC12921516 (ACS Bio & Med Chem Au, 2025)

Columns and labels:
hTCPTP1–415 = target: T1, hTCPTP1–415 (Homo sapiens, UniProt P17706); experiment: TCPTP inhibitory activity; type: biochemical; conditions: pNPP substrate; tested up to 100 μM
T1 construct: h TCPTP 1–415 IC 50 (μM ± S.D); made in house
T1 sequence (P17706 1-415): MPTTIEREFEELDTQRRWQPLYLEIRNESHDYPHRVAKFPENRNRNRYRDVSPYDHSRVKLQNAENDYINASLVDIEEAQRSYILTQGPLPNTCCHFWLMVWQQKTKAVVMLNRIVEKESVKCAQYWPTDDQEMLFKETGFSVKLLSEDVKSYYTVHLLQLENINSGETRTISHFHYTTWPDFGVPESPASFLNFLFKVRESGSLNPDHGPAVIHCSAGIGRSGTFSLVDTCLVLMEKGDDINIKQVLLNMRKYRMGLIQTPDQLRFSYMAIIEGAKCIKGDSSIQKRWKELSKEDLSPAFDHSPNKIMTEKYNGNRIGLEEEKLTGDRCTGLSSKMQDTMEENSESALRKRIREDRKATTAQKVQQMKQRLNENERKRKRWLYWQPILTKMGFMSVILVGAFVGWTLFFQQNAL
Description: The effectiveness and safety of a PTP1B inhibitor primarily depend on its selectivity, given that protein tyrosine phosphatases share significant structural homology within their catalytic domains. […] Ertiprotafib was also included in this study.
Aliquots of 0–10 μL of the test compounds (triplicate) were taken and incubated for 15 min at 37 °C with 85 μL of Tris buffer solution (50 mM, pH 6.8) containing PTP1B enzyme and 5 μL of p-nitrophenyl phosphate substrate (pNPP, 10 mM). The absorbance of the hydrolysis product, p-nitrophenol (pNP), was measured at 405 nm using a 96-microplate absorbance reader (Accuris SmartReader 96). The inhibitory activity was determined according to eq . %enzyme=(A405b/A405c)×100 1 Where: % enzyme is the percentage of inhibition for PTP1B or TCPTP
The IC50 was calculated using regression analysis, eq : %inhibition=A100/1+(I/IC50)^s 2 Where: A100: Maximum inhibition

hPTP1B1–400 = target: T2, hPTP1B1–400 (Homo sapiens, UniProt P18031); experiment: Enzymatic kinetics studies (Lineweaver–Burk, model fitting); type: biochemical; conditions: for inhibition type: hPTP1B1–400, best fit model; for Ki: hPTP1B1–400, pNPP 0.1–0.5 mM; for Km / Vmax: hPTP1B1–400 with inhibitor
T2 construct: h PTP1B 1–400 IC 50 (μM ± S.D); made in house
T2 sequence (P18031 1-400): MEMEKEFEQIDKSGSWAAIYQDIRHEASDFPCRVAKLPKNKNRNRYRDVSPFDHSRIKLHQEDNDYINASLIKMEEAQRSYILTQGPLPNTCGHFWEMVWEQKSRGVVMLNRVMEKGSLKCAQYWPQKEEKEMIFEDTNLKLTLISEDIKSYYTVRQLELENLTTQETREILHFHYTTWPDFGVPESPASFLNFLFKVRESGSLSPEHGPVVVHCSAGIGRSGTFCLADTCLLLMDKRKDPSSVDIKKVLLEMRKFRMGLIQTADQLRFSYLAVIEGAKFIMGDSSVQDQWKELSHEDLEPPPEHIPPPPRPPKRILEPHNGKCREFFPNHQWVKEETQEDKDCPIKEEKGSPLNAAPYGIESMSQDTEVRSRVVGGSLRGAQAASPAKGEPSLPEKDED
Description: Kinetic analyses were conducted using varying concentrations of substrate and inhibitor.
Five increasing concentrations of each inhibitor were tested, according to their previously determined IC50 values. The negative control was prepared by omitting the inhibitor in the presence of the enzyme and substrate. The Supporting Information includes detailed eqs (E1–E5) used to determine the kinetic parameters and mechanisms involved in PTP1B inhibition.
Equation 1 was used to obtain enzyme kinetic parameters by fitting data to the Michaelis-Menten model (Origin Pro
The equations defined for the following non-linear inhibition models were used to determine the mechanism of
PTP1B inhibition: competitive (E2), non-competitive (E3), uncompetitive (E4), and mixed (E5) (Origin Pro 2018 (64
(1+ ( ))(x05nh ) + (1+ ( )) (x05 nh)
Vmax is the maximum velocity, x is the substrate concentration, i is the inhibitor concentration, nh is the number of
Hill. Ki is the inhibition constant, and Km is the Michaelis constant.

normoglycemic CD1 mice = experiment: Oral glucose tolerance test (OGTT); type: in vivo; conditions: single intragastric dose 50 mg/kg, glucose 2 g/kg
Description: The studies were carried out on compounds 4b, 4g, and 5g using both normoglycemic CD1 mice and a mouse model of noninsulin-dependent diabetes mellitus (NIDDM). An oral glucose tolerance test (OGTT) was conducted on the normoglycemic mice to evaluate the hypoglycemic activity of the compounds, while an insulin tolerance test (ITT) was performed on hyperglycemic CD1 mice to assess the compounds’ capacity to enhance insulin sensitivity in streptozotocin-induced diabetic mice. Pioglitazone and GA were included as positive controls.
Healthy six-week-old male CD-1 mice, weighing between 30 and 40 g, were maintained at a temperature of 25 ± 2 °C, under a 12-h light/dark cycle and 45–65% humidity throughout the experimental period. The mice were provided with a rodent pelleted diet (Harlan Laboratories, Indianapolis, USA) and had access to water ad libitum. Sixteen hours before the experiment, all mice were fasted but still had free access to water. All animal procedures were conducted in accordance with the Mexican Federal Regulations for Animal Experimentation and Care (SAGARPA, NOM-062-ZOO-1999, Mexico) and received approval from the Institutional Animal Care and Use Committee, following guidelines outlined in the US National Institutes of Health publication (No. 85–23, revised 1985).
Animals were categorized into five groups, each consisting of four mice (n = 4). The experimental groups received an oral suspension of compounds 4b, 4g, and 5g, prepared in a 10% Tween 20/water solution, at a dosage of 50 mg/kg body weight. A control group was treated with only the 10% Tween 20 solution. The final group was administered pioglitazone at a dose of 45 mg/kg, which is recognized as a reference drug for insulin sensitization. To evaluate glucose levels, blood samples were collected from the tails of the mice at 0, 30, 60, 90, and 120 min after the administration of the vehicle, test compound, or drug. Blood glucose concentration was measured using a commercial glucometer (Accu-Chek, Performa; Roche) and the enzymatic glucose dehydrogenase method. The percentage variation in glycemia was calculated by comparing the selected postadministration glycemia (G x ) with the initial value (G0) using the following formula: %variationofglycemia=[(Gx−G0)/G0]×100 where G0 represents the initial glycemia values and Gx indicates the glycemia values at +30, + 60, + 90, and +120 min, respectively.
To determine the hypoglycemic effect of the compounds on nondiabetic animals, the compounds 4b, 4g, and 5g were administered intragastrically. Pioglitazone was used as a positive control. After 30 min, five mice/group (CD-1) were subjected to OGTT. The test was performed using glucose (2 g/kg) as substrate.

| IC50 (hTCPTP1–415) [µM] | inhibition type (hPTP1B1–400) | Ki (hPTP1B1–400) [nM] | Km (hPTP1B1–400) [µM] | Vmax (hPTP1B1–400) [mM/min] | Compound | hypoglycemic effect in OGTT (normoglycemic CD1 mice) |
| --- | --- | --- | --- | --- | --- | --- |
| > 100 | uncompetitive | 320 ± 50 | 760 ± 170 | 1.24 ± 0.18 | CC1(C)c2[nH]c3ccc(OC(F)F)cc3c2C[C@]2(C)[C@H]3C(=O)C=C4[C@@H]5C[C@@](C)(C(=O)O)CC[C@]5(C)CC[C@@]4(C)[C@]3(C)CC[C@@H]12 [compound 4b, (20β)-5′-(Difluoromethoxy)-11-oxo-1′H-oleana-2,12-dieno[3,2-b]indol-29-oic Acid] | did not cause hypoglycemia |
| > 100 | uncompetitive | 1620 ± 190 | 870 ± 130 | 1.46 ± 0.15 | CC1(C)c2[nH]c3ccc(S(N)(=O)=O)cc3c2C[C@]2(C)[C@H]3C(=O)C=C4[C@@H]5C[C@@](C)(C(=O)O)CC[C@]5(C)CC[C@@]4(C)[C@]3(C)CC[C@@H]12 [compound 4g, (20β)-5′-Sulfamoyl-11-oxo-1′H-oleana-2,12-dieno[3,2-b]indol-29-oic Acid] | did not cause hypoglycemia |
| > 100 | uncompetitive | 720 ± 120 | 970 ± 200 | 1.34 ± 0.21 | CC1(C)c2c(cnn2-c2ccc(S(N)(=O)=O)cc2)C[C@]2(C)[C@H]3C(=O)C=C4[C@@H]5C[C@@](C)(C(=O)O)CC[C@]5(C)CC[C@@]4(C)[C@]3(C)CC[C@@H]12 [compound 5g, (20β)-11-Oxo-2′-(4-sulfamoylphenyl)-2′H-oleana-2,12-dieno[3,2-c]pyrazol-29-oic Acid] | did not cause hypoglycemia |
